Experimental data reported in patent US8258175B2, “Isoindolin-1-one derivatives” (Cancer Research Technology Limited, priority 2004, dated 2012).
Where no end group is shown, it is not given here.

How the values were obtained:
MDM2-p53 interaction [1] = molecular target: T1, MDM2-p53 interaction (Homo sapiens, UniProt Q00987); assay: Preliminary screening, in vitro MDM2-p53 binding assay; conditions: preliminary screening studies; read-out: IC50 (inhibition of the MDM2-p53 interaction)
T1 construct: made in house; host or cells: in vitro translation (cell-free)
Text: Studies of the p53 binding pocket on the MDM2 protein guided the nature of the molecules synthesised. Thus the present invention provides small molecule inhibitors of MDM2-p53 interaction based on an isoindolinone scaffold.

MDM2-p53 interaction [2] = molecular target: T1, MDM2-p53 interaction; assay: ELISA assay of MDM2-p53 complex formation (MDM2 binding to immobilised IP3 p53-derived peptide)
Method: Streptavidin-coated 96-well plates are used to immobilise a biotin-tagged IP3 p53-derived peptide ([…]). This is a peptide analogue derived from the p53 binding site for MDM2 ([…]). […] Aliquots of MDM2 generated by in vitro translation are pre-incubated for 20 minutes at room temperature (i.e. 20-25° C.) with test compounds and controls, before transfer into the IP3-coated 96-well plates. Following a further incubation period of 90 minutes at 4° C., the plates are washed to remove unbound MDM2 and the residual bound MDM2 is detected using a primary monoclonal antibody (MDM2 Ab-1, clone IF2, Oncogene Research Products) and HRP-conjugated secondary antibody (Goat anti-mouse, Dako PO447). The HRP (horseradish peroxidase) is measured by a chemiluminescence reaction using standard reagents (Amersham Pharmacia™ RPN 2106) and an automatic injection 96-well plate illuminometer (EG & G Berthold Microplate LB 96V).
Compound NU8231 is currently included as a standard “lead compound” positive control. […] The AP peptide is included as a positive control for biological evaluation of the isoindolinones in the cell free binding assays.
All compounds are dissolved in DMSO and tested at three standard concentrations (initially 20 μM, 100 μM and 500 μM) in the presence of a fixed final concentration of 5% DMSO. The percentage inhibition of complex formation is expressed relative to a DMSO only control and an IC50, defined as the concentration required for 50% inhibition of MDM2-p53 complex formation, determined by interpolation.

[3] = tested on: SJSA cells (MDM2 amplified); assay: Western blot of SJSA cells treated with compound; type: cell-based; conditions: SJSA cells, 5, 10 and 20 μM, lysed at 6 hours
Method: Osteosarcoma cell line SJSA-1 was plated out in 55 mm dishes at a density of 2.5×10^5 cells in 3 mL of RPMI 1640 medium (Sigma) supplemented with 10% foetal bovine serum (FBS, Gibco), 1% (v/v) HEPES (Gibco), 1% (v/v) sodium pyruvate (Gibco) and 1.25 g/500 ml glucose (Sigma) for 48 hours in a 37° C. humidified incubator (Sanyo, MCO 20AIC) at a CO2 concentration of 5%.
The dishes were treated with NU8231 at a final concentration of 5, 10, and 20 μM (at 1% DMSO) together with a 1% DMSO and an untreated control sample for 6 hours. The medium was then aspirated and the dishes were washed with 3 mL of cold PBS. The cells were then lysed in 40 μL of Sodium Dodecyl Sulphate (SDS, Sigma) lysis buffer, boiled at 100° C. for 10 minutes before sonication for 3×5 seconds at 20 microns (Soniprep 150, MSE).
The protein concentration for each of the samples was then determined using BCA Protein Assay Kit (Pierce), and 1:1 loading buffer consisting of β-mercaptoethanol (Sigma) and 0.5% bromophonol-blue (Sigma) were added to 40 μg of protein and made up to a final volume of 30 μL and boiled for 5 minutes at 100° C.
The samples were then loaded onto a precast 4-20% gradient polyacrylamide Tris-Glycine gels (15 wells, 1.5 mm thickness, Invitrogen Life Technologies), along with a pre-stained marker protein (SeeBlue, Invitrogen). The Gels were processed in Novex XCell (Invitrogen) at 180V and blotted onto a High Bond C membrane (Amersham Life Science) overnight at 30V.
The membrane was then blocked for one hour at room temperature in TBS-Tween containing 5% non-fat milk (TBST-M) followed by incubation with primary antibodies for MDM2 (MDM2-Ab1, 1:500, Oncogene), p53 (p53-D07, 1:1000, Novacastra), p21 (p21 Ab1, 1:100, Oncogene) and Actin (Actin AC40, 1:1000, Sigma) in PBST-M for 1 hour.
The membrane was then washed three times in TBST (15 minutes per wash) and then incubated for an additional 1 hour with a anti mouse or a rabbit horseradish peroxidase (HRP) secondary antibody (Dako, 1:1000) in PBST-M followed by a final wash consisting of six washes with TBST at 5 minutes per wash. […]

MDM2 = MDM2 (Homo sapiens, UniProt Q00987); conditions: Stoll et al 2001; cited from earlier work
[4] = n=3 independent determinations, 5% DMSO, interpolated from three standard concentrations

T1 sequence (Q00987 whole entry): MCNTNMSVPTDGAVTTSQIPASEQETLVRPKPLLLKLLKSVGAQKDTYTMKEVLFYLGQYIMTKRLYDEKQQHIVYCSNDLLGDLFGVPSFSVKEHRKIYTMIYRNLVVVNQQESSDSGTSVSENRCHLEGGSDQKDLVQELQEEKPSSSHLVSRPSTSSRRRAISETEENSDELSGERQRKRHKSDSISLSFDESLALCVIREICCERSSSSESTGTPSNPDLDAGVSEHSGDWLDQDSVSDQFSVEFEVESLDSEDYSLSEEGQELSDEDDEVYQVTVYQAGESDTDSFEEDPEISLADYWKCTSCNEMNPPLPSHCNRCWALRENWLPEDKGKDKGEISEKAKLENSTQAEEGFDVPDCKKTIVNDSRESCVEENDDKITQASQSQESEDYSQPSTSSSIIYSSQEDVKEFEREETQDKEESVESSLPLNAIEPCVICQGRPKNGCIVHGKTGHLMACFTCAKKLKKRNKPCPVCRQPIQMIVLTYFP
Chain of MDM2 (Q00987 whole entry): as above

Compound	melting point	IC50 (MDM2-p53 interaction [2]; [4])	also measured
CCCOC1(c2ccccc2)c2ccccc2C(=O)N1Cc1ccccc1 (stereo not drawn) [NU8001, 2-benzyl-3-phenyl-3-propoxy isoindolin-1-one]	–	–	IC50 (MDM2-p53 interaction [1]): ~200 µM
CCCNC1(c2ccccc2)c2ccccc2C(=O)N1Cc1ccccc1 (stereo not drawn) [NU8006, 2-benzyl-3-phenyl-3-(propylamino)isoindolin-1-one]	–	–	IC50 (MDM2-p53 interaction [1]): ~200 µM
CCCOC1(c2ccccc2)c2ccccc2C(=O)N1CCC (stereo not drawn) [NU8009, 2-propyl-3-phenyl-3-propoxy isoindolinin-1-one]	–	–	IC50 (MDM2-p53 interaction [1]): ~200 µM
CCCN1C(=O)c2ccccc2C1(OCc1cc(OC)c(O)c(OC)c1)c1ccc(Cl)cc1 (stereo not drawn) [NU8231, 3-(4-Chlorophenyl)-3-(4-hydroxy-3,5-dimethoxybenzyloxy)-2-propyl-2,3-dihydroisoindolin-1-one]	–	–	MDM2 level (Western blot) [3]: dose dependent increase; p21 level (Western blot) [3]: dose dependent increase; p53 levels (Western blot) [3]: No change
O=C1c2ccccc2C(OC2CCC(O)C2)(c2ccc(Cl)cc2)N1Cc1ccc([N+](=O)[O-])cc1 (stereo not drawn) [NU8261, 3-(4-Chlorophenyl)-3-(3-hydroxycyclopentyloxy)-2-(4-nitrobenzyl)-2,3-dihydroisoindolin-1-one]	–	–	IC50 (MDM2-p53 interaction [2]; nM): 700 nM
O=C1c2ccccc2C(O)(c2ccc(Cl)cc2)N1CC1CC1 (stereo not drawn) [NU8265, 3-(4-Chlorophenyl)-2-cyclopropylmethyl-3-hydroxy-2,3-dihydroisoindolin-1-one]	–	> 20000 nM	–
O=C1c2ccccc2C(OC2CCC(O)C2)(c2ccc(Cl)cc2)N1Cc1ccc(Cl)cc1 (stereo not drawn) [NU8274, 2-(4-Chlorobenzyl)-3-(4-chlorophenyl)-3-(3-hydroxycyclopentyloxy)isoindolin-1-one]	–	2400 ± 700 nM	–
O=C1c2ccccc2C(OC2CCC(O)C2)(c2ccc(Cl)cc2)N1CC1CC1 (stereo not drawn) [NU8280, 3-(4-Chlorophenyl)-2-cyclopropylmethyl-3-(3-hydroxycyclopentyloxy)-2,3-dihydro-isoindolin-1-one]	–	15400 ± 2300 nM	–
IP3: biotin-tagged p53-derived peptide (MPRFMDYWEGLN), analogue derived from the p53 binding site for MDM2 (also: biotin tag, place not given here)	–	–	affinity for MDM2 relative to the native p53 peptide (MDM2): higher affinity for MDM2 than the native peptide

Further lines, with some results ahead:

melting point	IC50 (MDM2-p53 interaction [2]; [4])	Compound	also measured
107 to 108 °C	92000 ± 11000 nM	CC(C)(C)c1ccc(COC2(c3ccccc3)c3ccccc3C(=O)N2Cc2ccccc2)cc1 (stereo not drawn) [NU8113, 2-Benzyl-3-(4-tert-butyl-benzyloxy)-3-phenyl-2,3-dihydro-isoindolin-1-one]	–
116.5 to 117.6 °C	187000 ± 38000 nM	CCCN1C(=O)c2ccccc2C1(OCc1ccc(C(C)(C)C)cc1)c1ccc(Cl)cc1 (stereo not drawn) [NU8221, 3-(4-tert-Butyl-benzyloxy)-3-(4-chlorophenyl)-2-propyl-2,3-dihydroisoindolin-1-one]	–
118.7 to 119.9 °C	> 500000 nM	CCCN1C(=O)c2ccccc2C1(OCc1ccc(C(C)(C)C)cc1)c1ccccc1 (stereo not drawn) [NU8223, 3-(4-tert-Butylbenzyloxy)-3-phenyl-2-propyl-2,3-dihydroisoindolin-1-one]	–
122.3 to 124.1 °C	–	CCCN1C(=O)c2ccccc2C1(OCCc1ccccn1)c1ccccc1 (stereo not drawn) [NU8224, 3-Phenyl-2-propyl-3-(2-pyridin-2-yl-ethoxy)-2,3-dihydroisoindolin-1-one]	–
